# Assay results: paper PMC12373846, “Hemoglobin as a pseudoperoxidase and drug target for oxidative stress-related diseases” (Signal Transduction and Targeted Therapy, 2025)
# How the values were obtained:
# [1] = test system: APP/PS1 mice; assay: Passive avoidance test, APP/PS1 mice; type: in vivo, mouse; settings: 3 mg/kg/day i.p., 16 times, Fig. S10b
# Experimental: (§1) For an animal model of AD, both sexes of 10- to 18-month-old APP/PS1 mice were maintained and used as previously described.[76],[77] To test the effects of novel H2O2-decomposing enhancers in the AD model, the mice were treated by i.p. injection with KDS12008 (3 mg/kg/day), KDS12017 (3 mg/kg/day), or KDS12025 (3 or 10 mg/kg/day) once per day for 1 or 2 weeks, depending on the experimental protocol. All drugs were dissolved in 200 μl of saline, and the amount of each drug was calculated on the basis of the weight (kg) of the mouse. Moreover, KDS12025 (3 mg/kg/day) was orally administered to the AD model for 2 weeks ad libitum.
# Sufficiently handled mice were ready before the PAT. The mice were placed in a two-compartment (light and dark) shuttle chamber with a shock generator (Ugo Basile, Italy). On the first day, the mice were placed in the light compartment for acquisition. The mice were allowed to explore the light compartment for 60 s, after which the door separating the light and dark compartments was raised to allow the mice to enter the dark compartment. When the mice entered the dark compartment, the separating door was closed immediately, and an electrical foot shock (0.5 mA, 2 s duration) was delivered through the floor grid. The mice were then moved back to the home cage, and the retention trial was conducted 24 h after the acquisition. On the second day, the mice were again placed in the light compartment for the retention trial. After 60 s, the door was raised to allow the mice to enter the dark compartment. The latency to step through the dark compartment before and after the electric shock was recorded for up to 540 s.
# [2] = test system: APP/PS1 mice; assay: Immunohistochemistry of hippocampus, APP/PS1 mice; type: in vivo, mouse; settings: 3 mg/kg/day i.p.
# Experimental: as §1
# The mice were deeply anesthetized with vaporized 1% isoflurane and placed into stereotaxic frames (RWD Life Science, China). Following an incision on the midline of the scalp, a hole was drilled into the skull above the hippocampus. AAV-GFAP104-GFP or AAV-GFAP104-DTR-GFP was bilaterally microinjected into the hippocampal CA1 region (AP, −2.0 mm; ML, ±1.5 mm; DV, −1.65 mm from the bregma). Diphtheria toxin (2 mg/ml) was administered for 16 days as previously described.[77] For shRNA knockdown, AAV-pSicoR-Hbβ-shRNA-mCherry or AAV-pSicoR-Sc-shRNA-mCherry was microinjected into the same coordinate system. A total of 0.8 µl of the virus was injected via a syringe pump (KD Scientific, USA). The injection procedures were implemented before 5 weeks of the experiments. For cell type-specific knockdown, AAV-pSico-Hbβ-shRNA-GFP or AAV-pSico-Sc-shRNA-GFP was combined with either AAV-CaMKII-Cre-mCherry for neuronal targeting or AAV-GFAP-Cre-mCherry for astrocyte targeting. The viruses were bilaterally injected into the hippocampus and substantia nigra via the same stereotaxic coordinates and injection procedures. All viruses used in this study were produced at the Institute for Basic Science virus facility (IBS virus facility, Korea). To investigate the effects of 0.1 mg/kg/day KDS12025, GiD mice were injected with diphtheria toxin (2 mg/ml) daily for 16 days. Concurrently, KDS12025 was administered ad libitum (0.1 mg/kg/day) during the same period.
# The mice were deeply anesthetized with 2% isoflurane and positioned on the operating table. After the abdomen was opened and the heart was exposed, the […] were perfused with saline, followed by 4% paraformaldehyde (PFA) in 0.1 M PBS. The mice were decapitated, and the brains were excised from the skull. Excised brains were postfixed in 4% PFA overnight at 4 °C and dehydrated in 30% sucrose for 48 h. Coronal hippocampal sections were cut at 30 µm thickness with a cryostat and stored in storage solution. For the ALS experiments, lumbar spinal cords (L2–L5) were also carefully dissected and immediately immersed in 4% PFA for postfixation. The sections were fully washed in 0.1 M PBS and incubated for 1 h in blocking solution (0.3% Triton X-100, 2% donkey and goat serum in 0.1 M PBS). Next, a mixture of primary antibodies in the blocking solution was used for immunostaining on a shaker overnight at 4 °C. The sections were washed in PBS three times. After washing, the sections were incubated with the corresponding fluorescent secondary antibodies for 1 h at RT. DAPI staining was performed by adding a DAPI solution (1:2000) during the second washing step. After the washing step was complete, the sections were mounted on cover slides with mounting medium. A series of fluorescence images were obtained with an LSM900 (Zeiss, Germany) confocal microscope or Lattice SIM Elyra 7 (Zeiss, Germany). The 15–22 μm Z stack images in 1–2 μm steps were processed for image analysis, which was performed via the ImageJ (NIH, US) and ZEN digital imaging for light microscopy blue system (Zeiss, Germany) programs.
compound,measurement,setting,value
"CNc1ccc(NCCc2ccc(C(F)(F)F)cc2)cc1.Cl [KDS12017, N^1-methyl-N^4-(4-(trifluoromethyl)phenethyl)benzene-1,4-diamine hydrochloride salt]","PAT transfer latency, acquisition",[1],71.53±23.24
same,"PAT transfer latency, retrieval",[1],305.6±137.5
same,mean intensity of Iba1 in the hippocampus,[2]; Fig. S10e,1556±53.65
same,mean intensity of GFAP in the hippocampus,[2]; Fig. S10d,1711±145.9
